ChEMBL document CHEMBL5649166, “RIP3 induces apoptosis independent of pronecrotic kinase activity” (Mol Cell, 2014)

Experiments:
[1] = target: Aurora kinase B (Homo sapiens) (UniProt Q96GD4); assay: Inhibition of human Aurora B using H-LRRASLG as substrate at 1 uM in presence of 32P-ATP by Hotspot assay relative to control; values are per cent of control
[2] = target: Non-receptor tyrosine-protein kinase TYK2 (Homo sapiens) (UniProt P29597); assay: Inhibition of human TYK2 using KKSRGDYMTMQIG as substrate at 1 uM in presence of 32P-ATP by Hotspot assay relative to control; values are per cent of control
Non-receptor tyrosine-protein kinase TYK2 (Homo sapiens), sequence (P29597 whole entry): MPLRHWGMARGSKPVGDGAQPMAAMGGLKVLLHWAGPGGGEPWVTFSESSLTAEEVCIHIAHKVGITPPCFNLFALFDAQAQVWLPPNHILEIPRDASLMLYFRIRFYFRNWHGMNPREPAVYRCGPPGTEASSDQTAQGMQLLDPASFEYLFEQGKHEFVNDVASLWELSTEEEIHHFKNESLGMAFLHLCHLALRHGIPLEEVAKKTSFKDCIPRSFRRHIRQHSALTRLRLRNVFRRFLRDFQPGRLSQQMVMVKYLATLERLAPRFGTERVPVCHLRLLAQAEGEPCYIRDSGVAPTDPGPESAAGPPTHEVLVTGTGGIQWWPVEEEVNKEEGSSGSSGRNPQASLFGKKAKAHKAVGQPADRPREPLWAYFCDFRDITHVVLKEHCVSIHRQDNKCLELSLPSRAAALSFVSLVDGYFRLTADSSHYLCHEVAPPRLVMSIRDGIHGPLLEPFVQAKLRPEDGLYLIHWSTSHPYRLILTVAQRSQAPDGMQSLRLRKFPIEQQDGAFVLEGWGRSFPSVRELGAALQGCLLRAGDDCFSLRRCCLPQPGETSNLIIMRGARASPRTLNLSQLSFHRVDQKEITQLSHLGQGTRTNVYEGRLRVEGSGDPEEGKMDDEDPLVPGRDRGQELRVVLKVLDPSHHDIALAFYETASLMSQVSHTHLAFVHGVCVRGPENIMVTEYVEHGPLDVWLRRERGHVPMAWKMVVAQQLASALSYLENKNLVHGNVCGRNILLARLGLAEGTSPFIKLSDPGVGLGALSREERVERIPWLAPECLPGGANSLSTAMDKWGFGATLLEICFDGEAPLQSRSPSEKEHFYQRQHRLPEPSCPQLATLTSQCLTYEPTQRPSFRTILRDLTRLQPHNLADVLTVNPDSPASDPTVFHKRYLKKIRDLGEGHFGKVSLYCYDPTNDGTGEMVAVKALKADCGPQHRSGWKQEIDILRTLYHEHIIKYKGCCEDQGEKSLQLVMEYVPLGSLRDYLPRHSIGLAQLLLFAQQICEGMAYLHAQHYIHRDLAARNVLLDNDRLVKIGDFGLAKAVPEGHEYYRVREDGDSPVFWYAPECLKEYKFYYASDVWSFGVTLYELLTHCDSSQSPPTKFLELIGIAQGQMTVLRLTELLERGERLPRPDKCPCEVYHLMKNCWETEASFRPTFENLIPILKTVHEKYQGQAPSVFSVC

[3] = target: Tyrosine-protein kinase Srms (Homo sapiens) (UniProt Q9H3Y6); assay: Inhibition of human SRMS using poly[Glu:Tyr] (4:1) as substrate at 1 uM in presence of 32P-ATP by Hotspot assay relative to control; values are per cent of control
Tyrosine-protein kinase Srms (Homo sapiens), sequence (Q9H3Y6 whole entry): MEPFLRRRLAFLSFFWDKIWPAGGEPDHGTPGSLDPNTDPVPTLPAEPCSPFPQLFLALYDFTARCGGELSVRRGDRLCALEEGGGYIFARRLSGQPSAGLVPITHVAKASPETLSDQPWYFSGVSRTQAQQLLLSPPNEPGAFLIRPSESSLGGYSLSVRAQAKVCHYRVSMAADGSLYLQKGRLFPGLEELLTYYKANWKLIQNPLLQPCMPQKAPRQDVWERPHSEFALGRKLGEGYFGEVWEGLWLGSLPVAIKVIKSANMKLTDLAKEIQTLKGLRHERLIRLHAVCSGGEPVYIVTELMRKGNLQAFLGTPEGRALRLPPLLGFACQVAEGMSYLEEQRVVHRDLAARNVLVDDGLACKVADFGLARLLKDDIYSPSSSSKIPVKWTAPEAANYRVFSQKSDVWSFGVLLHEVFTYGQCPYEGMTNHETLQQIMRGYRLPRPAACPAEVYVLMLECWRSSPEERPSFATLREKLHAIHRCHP

[4] = target: Protein-tyrosine kinase 2-beta (Homo sapiens) (UniProt Q14289); assay: Inhibition of human PYK2 using poly[Glu:Tyr] (4:1) as substrate at 1 uM in presence of 32P-ATP by Hotspot assay relative to control; values are per cent of control
Protein-tyrosine kinase 2-beta (Homo sapiens), sequence (Q14289 whole entry, looked up): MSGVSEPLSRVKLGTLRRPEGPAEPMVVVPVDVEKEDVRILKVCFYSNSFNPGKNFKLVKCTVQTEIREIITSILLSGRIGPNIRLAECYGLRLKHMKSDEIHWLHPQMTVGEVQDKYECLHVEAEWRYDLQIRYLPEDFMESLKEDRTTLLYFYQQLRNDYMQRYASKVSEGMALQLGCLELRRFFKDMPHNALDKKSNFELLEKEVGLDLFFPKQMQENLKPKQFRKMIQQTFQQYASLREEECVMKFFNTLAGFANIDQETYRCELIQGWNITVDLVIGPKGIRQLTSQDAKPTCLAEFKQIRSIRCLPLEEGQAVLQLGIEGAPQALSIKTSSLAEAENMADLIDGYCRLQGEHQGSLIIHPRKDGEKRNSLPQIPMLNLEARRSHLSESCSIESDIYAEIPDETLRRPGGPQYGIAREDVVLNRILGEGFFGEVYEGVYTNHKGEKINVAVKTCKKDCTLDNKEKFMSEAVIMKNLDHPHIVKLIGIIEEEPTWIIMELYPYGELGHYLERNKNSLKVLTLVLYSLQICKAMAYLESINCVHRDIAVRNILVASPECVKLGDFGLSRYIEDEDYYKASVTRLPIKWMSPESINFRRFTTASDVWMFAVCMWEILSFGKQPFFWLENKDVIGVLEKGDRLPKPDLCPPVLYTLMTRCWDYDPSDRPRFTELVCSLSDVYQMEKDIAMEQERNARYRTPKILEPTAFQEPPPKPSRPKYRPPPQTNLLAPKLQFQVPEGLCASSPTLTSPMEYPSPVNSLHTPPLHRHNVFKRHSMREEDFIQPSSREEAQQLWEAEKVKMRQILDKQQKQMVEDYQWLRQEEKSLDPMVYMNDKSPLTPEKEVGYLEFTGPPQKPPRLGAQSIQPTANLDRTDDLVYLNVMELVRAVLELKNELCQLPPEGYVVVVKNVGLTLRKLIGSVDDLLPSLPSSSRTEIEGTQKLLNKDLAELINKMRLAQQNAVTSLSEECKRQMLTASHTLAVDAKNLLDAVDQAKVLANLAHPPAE

[5] = organism: Homo sapiens; assay: Inhibition of human TAOK2/TAO1 using myelin basic protein as substrate at 1 uM in presence of 32P-ATP by Hotspot assay relative to control; values are per cent of control
[6] = target: T1, Tyrosine-protein kinase ITK/TSK (Homo sapiens) (UniProt Q08881); assay: Inhibition of human ITK using myelin basic protein as substrate at 1 uM in presence of 32P-ATP by Hotspot assay relative to control; values are per cent of control
T1 sequence (whole entry): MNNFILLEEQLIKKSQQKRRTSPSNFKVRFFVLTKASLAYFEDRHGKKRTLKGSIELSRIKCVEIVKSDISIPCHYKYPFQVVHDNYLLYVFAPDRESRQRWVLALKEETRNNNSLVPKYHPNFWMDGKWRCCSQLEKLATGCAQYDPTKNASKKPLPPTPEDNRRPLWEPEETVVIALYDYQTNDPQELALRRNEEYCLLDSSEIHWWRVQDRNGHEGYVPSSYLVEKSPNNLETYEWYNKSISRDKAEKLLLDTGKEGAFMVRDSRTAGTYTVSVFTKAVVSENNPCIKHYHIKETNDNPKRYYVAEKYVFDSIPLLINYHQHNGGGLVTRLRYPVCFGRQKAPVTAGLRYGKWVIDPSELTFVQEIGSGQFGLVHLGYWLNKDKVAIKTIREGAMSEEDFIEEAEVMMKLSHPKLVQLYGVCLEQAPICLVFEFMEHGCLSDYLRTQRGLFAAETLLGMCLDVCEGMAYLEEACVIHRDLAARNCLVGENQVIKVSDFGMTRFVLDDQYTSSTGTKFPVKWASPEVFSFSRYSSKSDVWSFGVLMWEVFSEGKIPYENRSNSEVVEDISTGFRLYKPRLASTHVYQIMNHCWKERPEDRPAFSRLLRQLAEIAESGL

[7] = target: Serine/threonine-protein kinase 33 (Homo sapiens) (UniProt Q9BYT3); assay: Inhibition of human STK33 using myelin basic protein as substrate at 1 uM in presence of 32P-ATP by Hotspot assay relative to control; values are per cent of control
Serine/threonine-protein kinase 33 (Homo sapiens), sequence (Q9BYT3 whole entry, looked up): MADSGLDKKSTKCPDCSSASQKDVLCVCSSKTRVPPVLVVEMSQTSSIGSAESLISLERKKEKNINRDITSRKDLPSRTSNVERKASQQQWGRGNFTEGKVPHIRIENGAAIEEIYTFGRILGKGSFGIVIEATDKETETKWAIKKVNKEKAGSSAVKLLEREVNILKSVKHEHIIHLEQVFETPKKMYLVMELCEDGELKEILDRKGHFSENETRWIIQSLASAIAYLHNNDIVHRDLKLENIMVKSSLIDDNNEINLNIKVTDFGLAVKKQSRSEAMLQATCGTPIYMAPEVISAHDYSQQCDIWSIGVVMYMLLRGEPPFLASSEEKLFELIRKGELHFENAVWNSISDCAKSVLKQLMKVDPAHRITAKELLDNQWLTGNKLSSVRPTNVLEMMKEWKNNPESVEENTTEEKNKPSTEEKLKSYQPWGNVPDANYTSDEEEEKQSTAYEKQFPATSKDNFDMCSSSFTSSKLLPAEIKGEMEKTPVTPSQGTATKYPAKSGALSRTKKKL

[8] = organism: Homo sapiens; assay: Inhibition of human CDK7/cyclin H using myelin basic protein as substrate at 1 uM in presence of 32P-ATP by Hotspot assay relative to control; values are per cent of control
[9] = target: Dual specificity tyrosine-phosphorylation-regulated kinase 1B (Homo sapiens) (UniProt Q9Y463); assay: Inhibition of human DYRK1B using RRRFRPASPLRGPPK as substrate at 1 uM in presence of 32P-ATP by Hotspot assay relative to control; values are per cent of control
Dual specificity tyrosine-phosphorylation-regulated kinase 1B (Homo sapiens), sequence (Q9Y463 whole entry, looked up, canonical isoform): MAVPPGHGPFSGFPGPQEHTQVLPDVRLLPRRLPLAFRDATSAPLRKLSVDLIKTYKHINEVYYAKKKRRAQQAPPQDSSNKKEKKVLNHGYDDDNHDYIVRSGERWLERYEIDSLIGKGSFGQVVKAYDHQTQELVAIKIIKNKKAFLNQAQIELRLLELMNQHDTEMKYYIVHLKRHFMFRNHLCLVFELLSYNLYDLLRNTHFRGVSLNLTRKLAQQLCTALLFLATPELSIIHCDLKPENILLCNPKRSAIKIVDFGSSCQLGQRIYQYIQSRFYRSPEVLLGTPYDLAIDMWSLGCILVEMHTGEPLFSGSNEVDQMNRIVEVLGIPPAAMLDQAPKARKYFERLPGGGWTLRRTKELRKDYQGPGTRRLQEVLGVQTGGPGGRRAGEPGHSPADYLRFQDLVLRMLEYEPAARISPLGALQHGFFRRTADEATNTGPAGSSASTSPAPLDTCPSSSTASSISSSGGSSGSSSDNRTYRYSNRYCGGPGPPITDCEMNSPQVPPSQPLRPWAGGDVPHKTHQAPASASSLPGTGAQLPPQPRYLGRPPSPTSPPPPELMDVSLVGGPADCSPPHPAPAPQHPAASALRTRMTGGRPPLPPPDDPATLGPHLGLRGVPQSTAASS

[10] = target: Phosphorylase b kinase gamma catalytic chain, skeletal muscle/heart isoform (Homo sapiens) (UniProt Q16816); assay: Inhibition of human PHKg1 using KKLNRTLSFAEPG as substrate at 1 uM in presence of 32P-ATP by Hotspot assay relative to control; values are per cent of control
Phosphorylase b kinase gamma catalytic chain, skeletal muscle/heart isoform (Homo sapiens), sequence (Q16816 whole entry, looked up, canonical isoform): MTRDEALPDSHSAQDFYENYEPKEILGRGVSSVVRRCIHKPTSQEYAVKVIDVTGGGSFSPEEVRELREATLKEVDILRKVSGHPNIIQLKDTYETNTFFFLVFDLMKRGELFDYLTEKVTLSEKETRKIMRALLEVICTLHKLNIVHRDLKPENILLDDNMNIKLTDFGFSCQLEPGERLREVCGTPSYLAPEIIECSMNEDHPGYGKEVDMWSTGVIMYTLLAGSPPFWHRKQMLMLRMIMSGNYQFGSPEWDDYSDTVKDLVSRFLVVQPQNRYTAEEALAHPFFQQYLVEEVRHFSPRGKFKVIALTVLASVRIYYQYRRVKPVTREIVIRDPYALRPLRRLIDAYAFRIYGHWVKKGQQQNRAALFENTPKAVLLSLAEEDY

[11] = target: T2, Protein kinase C iota type (Homo sapiens) (UniProt P41743); assay: Inhibition of human PKCiota using ERMRPRKRQGSVRRRV as substrate at 1 uM in presence of 32P-ATP by Hotspot assay relative to control; values are per cent of control
T2 sequence (whole entry): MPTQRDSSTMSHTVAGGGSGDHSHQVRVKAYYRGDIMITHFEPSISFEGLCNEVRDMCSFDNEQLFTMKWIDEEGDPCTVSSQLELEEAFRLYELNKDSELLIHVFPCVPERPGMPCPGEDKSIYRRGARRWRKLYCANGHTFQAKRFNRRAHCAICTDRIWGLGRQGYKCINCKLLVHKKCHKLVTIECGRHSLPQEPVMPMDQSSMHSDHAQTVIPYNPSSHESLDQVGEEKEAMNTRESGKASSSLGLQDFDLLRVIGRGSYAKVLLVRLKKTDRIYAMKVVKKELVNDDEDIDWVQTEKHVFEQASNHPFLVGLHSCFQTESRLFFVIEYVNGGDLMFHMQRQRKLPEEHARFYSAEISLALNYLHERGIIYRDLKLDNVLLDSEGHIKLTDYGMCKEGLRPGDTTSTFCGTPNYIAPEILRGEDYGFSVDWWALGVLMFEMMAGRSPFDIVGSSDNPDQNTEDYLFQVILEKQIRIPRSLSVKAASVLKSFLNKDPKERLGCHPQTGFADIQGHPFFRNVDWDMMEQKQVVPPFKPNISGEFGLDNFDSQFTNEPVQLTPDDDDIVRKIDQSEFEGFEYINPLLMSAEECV

Aurora kinase B (Homo sapiens), sequence (Q96GD4 whole entry): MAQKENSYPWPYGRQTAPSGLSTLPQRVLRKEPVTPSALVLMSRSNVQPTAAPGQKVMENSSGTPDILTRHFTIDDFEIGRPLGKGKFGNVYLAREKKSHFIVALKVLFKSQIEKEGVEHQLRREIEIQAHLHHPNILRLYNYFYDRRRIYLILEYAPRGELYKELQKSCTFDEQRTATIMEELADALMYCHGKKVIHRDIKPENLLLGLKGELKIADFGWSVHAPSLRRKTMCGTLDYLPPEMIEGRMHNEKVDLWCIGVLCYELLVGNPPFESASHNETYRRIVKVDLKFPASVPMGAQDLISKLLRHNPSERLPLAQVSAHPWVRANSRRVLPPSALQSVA

Structure (SMILES)	residual activity [1] [%]	residual activity [2] [%]	residual activity [3] [%]	residual activity [4] [%]	residual activity [5] [%]	residual activity [6] [%]	residual activity [7] [%]	residual activity [8] [%]	residual activity [9] [%]	residual activity [10] [%]	residual activity [11] [%]
Cc1cc(-c2cnc(N)c3c(-c4ccc5scnc5c4)csc23)n(C)n1	89.8	99.4	78.8	105	97.1	98.3	99	94.2	99.5	96.8	102
CC(C)S(=O)(=O)c1ccc2nccc(Nc3ccc4scnc4c3)c2c1	97.5	101	77.1	95.5	93.4	104	103	97.7	100	94.8	83
CNC(=O)c1ccc2c(c1)ncn2-c1ccc(CC(=O)OC(C)(C)C)cc1	82.1	103	105	96.4	102	99	102	96.2	98.4	101	93.8
